Source: patent US20150005381A1, “METHOD FOR MODULATING STEM CELL GROWTH” (SUCAMPO AG, priority 2008, published 2015)

Assays:
[1] = test system: full-thickness excisional wound in diabetic mice; assay: Excisional wound healing in diabetic mice; assay type: in vivo, female diabetic (BKS.Cg-+Lepr^db/+Lepr^db/Jcl) mice; details: ointment, Table 3
Protocol: The effect of Compound A (11-deoxy-13,14-dihydro-15-keto-16,16-difluoro-PGE1) on excisional wound healing was tested. A full-thickness excisional wound (1.5×1.5 cm) was made on the back of female diabetic (BKS.Cg-+Lepr^db/+Lepr^db/Jcl) mice at the age of 12 weeks. The excisional wound was covered with the perforated film dressing. Each test ointment was put into a 1-mL disposable polypropylene syringe to which a 21G hypodermic needle is attached, and 0.1 mL of the test ointment was applied to the wound by sticking the hypodermic needle into the film dressing, which covers the excisional wound. The application was performed once a day for 21 days starting from the day when the excisional wound was made; the day when the excisional wound was made was defined as Day 1. For histological examination, the skin including the excisional wound was obtained from animals treated with each test ointment for 6 days, and was served for immunostaining with antibody against Ki67, a marker protein of proliferating cells. The outline of each excisional wound was traced before application (Day 1) and Days 6, 8, 11, 13, 15, 18, 20, and 22 of administration. The traced excisional wound area was measured with an area-line meter. […]

[2] = test system: nigro-striatal dopaminergic neurons of MPTP-treated mice; assay: Effect on impaired dopaminergic neurons in MPTP-treated mice (TH immunostaining); assay type: in vivo, male C57BL/6 mice; details: Day 8; for Area of TH-positive immunostained fibers in striatum, mean ± S.E. / TH-positive immunostained cells in substantia nigra, mean ± S.E.: MPTP-treated mice
Protocol: The effect of Compound A (11-deoxy-13,14-dihydro-15-keto-16,16-difluoro-PGE1) on impaired neuron was tested. 1-methyl-4-phenyl-1,2,3,6-tetrahydropyridine hydrochloride (MPTP) was intraperitoneally administered to male C57BL/6 mice aged 10 weeks at 15 mg/kg/dose 4 times a day with an approximately 3-hour interval between doses for 2 days (experimental Day 1 and Day 2) to destroy the dopaminergic neuron in the brain. On the day following the final MPTP administration (on Day 3), some MPTP-treated mice were sacrificed to estimate the severity of degeneration and loss of nigro-striatal dopamine neurons by measuring the area of tyrosine hydroxylase (TH)-positive immunostained fibers in striatum. Other MPTP-treated mice were orally administered Compound A (11-deoxy-13,14-dihydro-15-keto-16,16-difluoro-PGE1) or the vehicle twice a day for 5 days (from Day 3 to Day 7) starting from the day following the final MPTP administration. The mice were decapitated on the day following the final administration of Compound A or the vehicle (on Day 8), and the whole brain was removed by incision of the skull, and placed into Bouin's fluid (pH 3.5-4.0). The brain section at the level of striatum (0.74 mm anterior to bregma) and substantia nigra (3.08 mm posterior to bregma) was cut out. After dehydration, the paraffin embedding of the slices was employed. Sections (about 6 μm thick) were prepared out of each of the slices at Bregma 0.74 mm and Bregma −3.08 mm, and the sections were used for TH immunostaining. The number of TH-positive immunostained cells in the right substantia nigra compacta (SNC) at Bregma −3.08 mm was counted by visual observation using an optical microscope OLYMPUS BH-2 (Olympus Corp.) with a ×20 microscope objective. For measuring the area of TH-positive immunostained fibers in striatum, an image obtained with an optical microscope OLYMPUS BH-2 (Olympus Corp.) with a ×40 microscope objective of TH-positive immunostained fibers in the right caudate putamen (CPu) at Bregma 0.74 mm was incorporated into a computer through OLYMPUS MCD-350, and the area of TH-positive fibers larger than 5 μm^2 was measured using an image analyzer Win ROOF (V5.6, Mitani Corp.), and expressed in term of an area of 1 mm^2.

[3] = Compound A 0.1 mg/kg orally twice a day for 5 days
[4] = Compound A 1 mg/kg orally twice a day for 5 days

Structure (SMILES): CCCCC(F)(F)C(=O)CCC1CCC(=O)C1CCCCCCC(=O)O (stereo not shown) [Compound A, 11-deoxy-13,14-dihydro-15-keto-16,16-difluoro-PGE1]
- Skin wound healing, in words [1]: accelerated skin wound healing
- Mean area of TH-positive fibers in the striatum compared to MPTP+Vehicle (control) group ([2]; 0.1 mg/kg and 1 mg/kg groups): significantly greater mean area of TH-positive fibers in the striatum
- Number of TH-positive immunostained cells in the substantia nigra, trend in words ([2]; 0.1 and 1 mg/kg orally): increased the number of TH-positive immunostained cells in the substantia nigra in a dose-dependent manner
- Area of TH-positive immunostained fibers in striatum, mean ± S.E. [2, 3]: 0.0465 ± 0.0102 mm2
- TH-positive immunostained cells in substantia nigra, mean ± S.E. [2, 3]: 35.2 ± 5.0 Number of cells
- Area of TH-positive immunostained fibers in striatum, mean ± S.E. [2, 4]: 0.0444 ± 0.0092 mm2
- TH-positive immunostained cells in substantia nigra, mean ± S.E. [2, 4]: 44.4 ± 5.0 Number of cells
